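Method: 48-hour compound exposure of cells in 96-well plates, five concentrations, linear interpolation of endpoints. Abbreviation: GI50, concentration required for 50% inhibition of growth.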 The source made the active and inactive calls. No stated cut-off is given here; in the data, active = GI50 up to about 1.1 µM and inactive = higher.
Assays:
Assay in all cases: NCI-60 cell line screen, 48 h
A498 = system: A498
BT-549 = system: BT-549
CAKI-1 = system: CAKI-1
EKVX = system: EKVX
HL-60 = system: HL-60
HT-29 = system: HT-29
IGROV-1 = system: IGROV-1
MCF7 = system: MCF7
MDA-MB-231 = system: MDA-MB-231
MDA-MB-435 = system: MDA-MB-435
NCI-H23 = system: NCI-H23
NCI-H460 = system: NCI-H460
OVCAR-8 = system: OVCAR-8
RPMI-8226 = system: RPMI-8226
SF-268 = system: SF-268
SK-MEL-28 = system: SK-MEL-28
SK-MEL-5 = system: SK-MEL-5
SN12C = system: SN12C
TK-10 = system: TK-10
HOP-62 = system: HOP-62

Measured: GI50

C=CCOc1cc(NC(=S)c2ccoc2C)ccc1OC
inactive: A498 > 100 µM | BT-549 > 100 µM | CAKI-1 > 100 µM | EKVX > 100 µM | HL-60 > 100 µM | HT-29 > 100 µM | IGROV-1 > 100 µM | MCF7 > 100 µM | MDA-MB-231 > 100 µM | MDA-MB-435 > 100 µM | NCI-H23 > 100 µM | NCI-H460 > 100 µM | OVCAR-8 > 100 µM | RPMI-8226 > 100 µM | SF-268 > 100 µM | SK-MEL-28 > 100 µM | SK-MEL-5 > 100 µM | SN12C > 100 µM

CC(=O)Nc1ccc(NC(=O)CC(=O)Nc2ccc(NC(C)=O)cc2)cc1
inactive: A498 > 100 µM | BT-549 > 100 µM | CAKI-1 > 100 µM | EKVX > 100 µM | HL-60 > 100 µM | HT-29 > 100 µM | IGROV-1 > 100 µM | MCF7 > 100 µM | MDA-MB-231 > 100 µM | MDA-MB-435 > 100 µM | NCI-H23 > 100 µM | NCI-H460 > 100 µM | OVCAR-8 > 100 µM | RPMI-8226 > 100 µM | SF-268 > 100 µM | SK-MEL-28 > 100 µM | SK-MEL-5 > 100 µM | SN12C > 100 µM | TK-10 > 100 µM

N=C(N)NCCCCCCC(=O)NC(O)C(=O)NCCCCNCCCN (configuration not stated)
inactive: A498 > 750 µM | BT-549 372 µM | EKVX 643 µM | HL-60 > 750 µM | HOP-62 726 µM | HT-29 > 750 µM | IGROV-1 665 µM | MCF7 745 µM | MDA-MB-231 > 750 µM | MDA-MB-435 > 750 µM | NCI-H23 684 µM | NCI-H460 718 µM | OVCAR-8 641 µM | RPMI-8226 483 µM | SF-268 > 750 µM | SK-MEL-28 > 750 µM | SK-MEL-5 > 750 µM | SN12C > 750 µM | TK-10 > 750 µM

CCn1ncc2c(=O)n3ncn(-c4ccc(Br)cc4)c3nc21
inactive: A498 > 100 µM | BT-549 > 100 µM | EKVX > 100 µM | HL-60 > 100 µM | HOP-62 > 100 µM | HT-29 > 100 µM | IGROV-1 > 100 µM | MCF7 > 100 µM | MDA-MB-231 > 100 µM | MDA-MB-435 > 100 µM | NCI-H23 > 100 µM | OVCAR-8 > 100 µM | RPMI-8226 > 100 µM | SF-268 > 100 µM | SK-MEL-28 > 100 µM | SK-MEL-5 > 100 µM | SN12C > 100 µM | TK-10 > 100 µM

C[C@@H]1CC[C@@]2(C)C(C(=O)O)=CCCC2[C@@]1(C)CC(=O)c1ccoc1 (some centres not stated)
inactive: A498 > 25 µM | BT-549 > 25 µM | CAKI-1 > 25 µM | EKVX > 25 µM | HL-60 > 25 µM | HT-29 > 25 µM | IGROV-1 > 25 µM | MCF7 > 25 µM | MDA-MB-231 > 25 µM | MDA-MB-435 > 25 µM | NCI-H23 > 25 µM | NCI-H460 > 25 µM | OVCAR-8 > 25 µM | RPMI-8226 > 25 µM | SF-268 > 25 µM | SK-MEL-28 > 25 µM | SK-MEL-5 > 25 µM | SN12C > 25 µM | TK-10 > 25 µM

C[C@H](CC[C@@H](O)C(C)(C)O)[C@H]1CC[C@@]2(C)[C@@H]3CC=C4[C@@H](CC[C@H](OC5OC(CO)C(O)C(O)C5O)C4(C)C)[C@]3(C)C(=O)C[C@]12C (some centres not stated)
inactive: A498 > 100 µM | BT-549 56.5 µM | CAKI-1 65 µM | EKVX 80.4 µM | HL-60 20.7 µM | HOP-62 36.8 µM | HT-29 26.1 µM | IGROV-1 19.8 µM | MCF7 51.5 µM | MDA-MB-231 > 100 µM | MDA-MB-435 42.6 µM | NCI-H23 > 100 µM | NCI-H460 52.4 µM | OVCAR-8 > 100 µM | SF-268 57.7 µM | SK-MEL-28 27.7 µM | SK-MEL-5 39.5 µM | SN12C 69 µM | TK-10 60.8 µM

CC1=N[C@](C)(C2CC3C=CC2C3=O)COC1=O (some centres not stated)
inactive: A498 > 100 µM | BT-549 > 100 µM | CAKI-1 > 100 µM | EKVX > 100 µM | HL-60 > 100 µM | HOP-62 > 100 µM | HT-29 > 100 µM | IGROV-1 > 100 µM | MCF7 > 100 µM | MDA-MB-231 > 100 µM | MDA-MB-435 > 100 µM | NCI-H23 > 100 µM | NCI-H460 > 100 µM | OVCAR-8 > 100 µM | SF-268 > 100 µM | SK-MEL-28 > 100 µM | SK-MEL-5 > 100 µM | SN12C > 100 µM | TK-10 > 100 µM

CC(Cc1ccc(O)cc1)NCC(O)c1ccc(O)c(O)c1 (configuration not stated)
inactive: A498 > 100 µM | BT-549 > 100 µM | CAKI-1 > 100 µM | EKVX > 100 µM | HOP-62 > 100 µM | HT-29 > 100 µM | IGROV-1 > 100 µM | MCF7 > 100 µM | MDA-MB-231 3.35 µM | MDA-MB-435 > 100 µM | NCI-H23 > 100 µM | NCI-H460 > 100 µM | OVCAR-8 > 100 µM | RPMI-8226 > 100 µM | SF-268 > 100 µM | SK-MEL-28 > 100 µM | SK-MEL-5 > 100 µM | SN12C > 100 µM | TK-10 > 100 µM

N#CCCN(CCC#N)c1ccc(/C=C2\N=C(c3ccccc3)N(NC(=O)c3ccncc3)C2=O)cc1
inactive: A498 > 100 µM | BT-549 > 100 µM | EKVX > 100 µM | HL-60 36.7 µM | HOP-62 > 100 µM | HT-29 > 100 µM | IGROV-1 > 100 µM | MCF7 > 100 µM | MDA-MB-231 > 100 µM | MDA-MB-435 69.3 µM | NCI-H460 > 100 µM | OVCAR-8 > 100 µM | RPMI-8226 > 100 µM | SF-268 > 100 µM | SK-MEL-28 > 100 µM | SK-MEL-5 > 100 µM | SN12C > 100 µM | TK-10 > 100 µM

CCOC(=O)C(O)(C(=O)OCC)c1cc(C(C)(C)C)c(O)c(C(C)(C)C)c1
inactive: A498 50.8 µM | BT-549 39.2 µM | CAKI-1 41.2 µM | EKVX 48.4 µM | HL-60 25.5 µM | HOP-62 > 100 µM | HT-29 28.1 µM | IGROV-1 45 µM | MCF7 40.4 µM | MDA-MB-231 53 µM | MDA-MB-435 37.2 µM | NCI-H23 43.6 µM | OVCAR-8 15.5 µM | RPMI-8226 26.1 µM | SF-268 40.7 µM | SK-MEL-28 31.8 µM | SK-MEL-5 17.8 µM | SN12C 43.4 µM | TK-10 34.5 µM

— ChEMBL document CHEMBL1201862, “PubChem BioAssay data set” (2004)
